{
  "source": "patent US8703210B1",
  "about": "“Adding calcium and bicarbonate to human blood” (Sang Lads, Inc., priority 2005, dated 2014)",
  "note": "Like-named read-outs stand apart in the source and are kept apart here.",
  "data": [
    {"smiles": "O=C([O-])[O-].[Ca+2]", "note": "[Calcium carbonate, calcium carbonate]", "values": [
      {"measurement": "pH", "setting": "after carbonic acid (in the form of club soda) is added to the mixture", "result": "neutral"},
      {"measurement": "pH", "setting": "calcium carbonate powder dissolved into water", "result": "≤ 9"}
    ]}
  ]
}
